# Columns and labels:
# S. aberdeen [1] = assay: Direct binding Salmonella assay on food cultures; conditions: white plate, Lucy 1
# Procedure: 25 g of a food sample were added to 225 ml culture medium according to the first aspect of the invention. Alternatively a surface swab may be taken from a 10×10 cm area on a carcass and cultured in 2-5 ml culture medium according to the first aspect of the invention. Specifically the culture medium comprised 1% peptone, 8 g/L sodium tetrathionate and 0.15 mg/L brilliant green. […]
# The sample was heated to 100° C. for 5 minutes and allowed to cool. One hundred microlitres of each test sample was added directly to a well of a solid white 96 well high binding microtitre plate (Greiner Bio One) and incubated at 37° C. for 30 minutes. During incubation, the lipid A portion of the LPS binds to the surface of the plate via non-covalent hydrophobic interactions (FIG. 1a (1), FIG. 1b(1)). Following incubation the plate was emptied and the wells washed three times with a wash buffer comprising 0.01M sodium phosphate buffer, pH 7.4, containing 0.147M NaCl and 0.05 (v/v) Tween 20.
# White Plate read on Lucy 1 luminometer
# S. aberdeen [2] = assay: Direct binding Salmonella assay (chemiluminescence immunosorbent); conditions: for signal, direct binding Salmonella assay: conjugate 1:100; for signal, release and detection of core oligosaccharide: 0.1% SDS
compound,measurement,setting,value
"CCCCCCCCCCCCOS(=O)(=O)[O-].[Na+] [SDS, sodium dodecyl sulphate]","signal, food culture","S. aberdeen [1]; 0.1% SDS, +ve Chicken (10 C.F.U. S. aberdeen, 18 hours)","131,488 ± 15,357"
same,"signal, food culture","S. aberdeen [1]; 0.1% SDS, +ve Drinking Chocolate (10 C.F.U. S. aberdeen, 18 hours)","45,626 ± 3204"
same,"signal, food culture","S. aberdeen [1]; 0.1% SDS, +ve Mayonnaise (10 C.F.U. S. aberdeen, 18 hours)","746,670 ± 86,449"
same,"signal, food culture","S. aberdeen [1]; 0.1% SDS, −ve Chicken",3426 ± 316
same,"signal, food culture","S. aberdeen [1]; 0.1% SDS, −ve Drinking Chocolate",1315 ± 63
same,"signal, food culture","S. aberdeen [1]; 0.1% SDS, −ve Mayonnaise",4180 ± 610
same,"signal, food culture","S. aberdeen [1]; 0.5% SDS, +ve Chicken (10 C.F.U. S. aberdeen, 18 hours)","36,770 ± 2,020"
same,"signal, food culture","S. aberdeen [1]; 0.5% SDS, +ve Drinking Chocolate (10 C.F.U. S. aberdeen, 18 hours)","110,756 ± 5737^"
same,"signal, food culture","S. aberdeen [1]; 0.5% SDS, +ve Mayonnaise (10 C.F.U. S. aberdeen, 18 hours)","387,924 ± 106,504"
same,"signal, food culture","S. aberdeen [1]; 0.5% SDS, −ve Chicken",4494 ± 904
same,"signal, food culture","S. aberdeen [1]; 0.5% SDS, −ve Drinking Chocolate",3266 ± 142
same,"signal, food culture","S. aberdeen [1]; 0.5% SDS, −ve Mayonnaise",3260 ± 733
same,"signal, direct binding Salmonella assay","S. aberdeen [2]; 0% SDS, 2.5 × 10^4 S. aberdeen, black and white plates","1,617 ± 250"
same,"signal, direct binding Salmonella assay","S. aberdeen [2]; 0% SDS, 5 × 10^3 S. aberdeen, black and white plates",575 ± 120
same,"signal, direct binding Salmonella assay","S. aberdeen [2]; 0% SDS, 5 × 10^4 S. aberdeen, black and white plates","2,027 ± 206"
same,"signal, direct binding Salmonella assay","S. aberdeen [2]; 0% SDS, 10^4 S. aberdeen, black and white plates","1,102 ± 357"
same,"signal, direct binding Salmonella assay","S. aberdeen [2]; 0% SDS, 10^5 S. aberdeen, black and white plates","3,131 ± 121"
same,"signal, direct binding Salmonella assay","S. aberdeen [2]; 0% SDS, 10^6 S. aberdeen, black and white plates","24,566 ± 4,287"
same,"signal, direct binding Salmonella assay","S. aberdeen [2]; 0% SDS, Peptone, black and white plates",643 ± 54
same,"signal, direct binding Salmonella assay","S. aberdeen [2]; 0.1% (w/v) SDS, 2.5 × 10^4 S. aberdeen, white plate, Lucy I","28,622 ± 2,162"
same,"signal, direct binding Salmonella assay","S. aberdeen [2]; 0.1% (w/v) SDS, 5 × 10^3 S. aberdeen, white plate, Lucy I","8,536 ± 1,520"
same,"signal, direct binding Salmonella assay","S. aberdeen [2]; 0.1% (w/v) SDS, 5 × 10^4 S. aberdeen, white plate, Lucy I","51,909 ± 3,036"
same,"signal, direct binding Salmonella assay","S. aberdeen [2]; 0.1% (w/v) SDS, 10^4 S. aberdeen, white plate, Lucy I","11,324 ± 2,770"
same,"signal, direct binding Salmonella assay","S. aberdeen [2]; 0.1% (w/v) SDS, 10^5 S. aberdeen, white plate, Lucy I","143,796 ± 4,297"
same,"signal, direct binding Salmonella assay","S. aberdeen [2]; 0.1% (w/v) SDS, 10^6 S. aberdeen, white plate, Lucy I","356,444 ± 102,877"
same,"signal, direct binding Salmonella assay","S. aberdeen [2]; 0.1% (w/v) SDS, Peptone, white plate, Lucy I","4,288 ± 1.653"
same,"signal, direct binding Salmonella assay","S. aberdeen [2]; 0.1% SDS (first block), 2.5 × 10^4 S. aberdeen, black and white plates","1,277 ± 211"
same,"signal, direct binding Salmonella assay","S. aberdeen [2]; 0.1% SDS (first block), 5 × 10^3 S. aberdeen, black and white plates",591 ± 1
same,"signal, direct binding Salmonella assay","S. aberdeen [2]; 0.1% SDS (first block), 5 × 10^4 S. aberdeen, black and white plates","1,297 ± 4"
same,"signal, direct binding Salmonella assay","S. aberdeen [2]; 0.1% SDS (first block), 10^4 S. aberdeen, black and white plates","1,662 ± 531"
same,"signal, direct binding Salmonella assay","S. aberdeen [2]; 0.1% SDS (first block), 10^5 S. aberdeen, black and white plates","2,386 ± 263"
same,"signal, direct binding Salmonella assay","S. aberdeen [2]; 0.1% SDS (first block), 10^6 S. aberdeen, black and white plates","16,738 ± 1051"
same,"signal, direct binding Salmonella assay","S. aberdeen [2]; 0.1% SDS (first block), Peptone, black and white plates",643 ± 54
same,"signal, direct binding Salmonella assay","S. aberdeen [2]; 0.1% SDS (second block), 2.5 × 10^4 S. aberdeen, black and white plates","1,442 ± 28^"
same,"signal, direct binding Salmonella assay","S. aberdeen [2]; 0.1% SDS (second block), 5 × 10^3 S. aberdeen, black and white plates",678 ± 40
same,"signal, direct binding Salmonella assay","S. aberdeen [2]; 0.1% SDS (second block), 5 × 10^4 S. aberdeen, black and white plates",2321 ± 437
same,"signal, direct binding Salmonella assay","S. aberdeen [2]; 0.1% SDS (second block), 10^4 S. aberdeen, black and white plates",930 ± 21
same,"signal, direct binding Salmonella assay","S. aberdeen [2]; 0.1% SDS (second block), 10^5 S. aberdeen, black and white plates","4,654 ± 636"
same,"signal, direct binding Salmonella assay","S. aberdeen [2]; 0.1% SDS (second block), 10^6 S. aberdeen, black and white plates","28,169 ± 1516"
same,"signal, direct binding Salmonella assay","S. aberdeen [2]; 0.1% SDS (second block), Peptone, black and white plates",503 ± 76
same,"signal, release and detection of core oligosaccharide",S. aberdeen [2]; 10^1 bacteria (species not given),10248 relative light units
same,"signal, release and detection of core oligosaccharide",S. aberdeen [2]; 10^2 bacteria (species not given),9525 relative light units
same,"signal, release and detection of core oligosaccharide",S. aberdeen [2]; 10^3 bacteria (species not given),12375 relative light units
same,"signal, release and detection of core oligosaccharide",S. aberdeen [2]; 10^4 bacteria (species not given),65960 relative light units
same,"signal, release and detection of core oligosaccharide",S. aberdeen [2]; 10^5 bacteria (species not given),717259 relative light units
same,"signal, release and detection of core oligosaccharide",S. aberdeen [2]; 10^6 bacteria (species not given),895811 relative light units
same,"signal, direct binding Salmonella assay","S. aberdeen [2]; 0.2% (w/v) SDS, 2.5 × 10^4 S. aberdeen, white plate, Lucy I","27,339 ± 2,635"
same,"signal, direct binding Salmonella assay","S. aberdeen [2]; 0.2% (w/v) SDS, 5 × 10^3 S. aberdeen, white plate, Lucy I","10,334 ± 2,264"
same,"signal, direct binding Salmonella assay","S. aberdeen [2]; 0.2% (w/v) SDS, 5 × 10^4 S. aberdeen, white plate, Lucy I","75,900 ± 5,798"
same,"signal, direct binding Salmonella assay","S. aberdeen [2]; 0.2% (w/v) SDS, 10^4 S. aberdeen, white plate, Lucy I","11,098 ± 828^"
same,"signal, direct binding Salmonella assay","S. aberdeen [2]; 0.2% (w/v) SDS, 10^5 S. aberdeen, white plate, Lucy I","112,096 ± 3,841"
same,"signal, direct binding Salmonella assay","S. aberdeen [2]; 0.2% (w/v) SDS, 10^6 S. aberdeen, white plate, Lucy I","365,496 ± 12,729"
same,"signal, direct binding Salmonella assay","S. aberdeen [2]; 0.2% (w/v) SDS, Peptone, white plate, Lucy I","3,904 ± 59^"
same,"signal, direct binding Salmonella assay","S. aberdeen [2]; 0.3% SDS, 2.5 × 10^4 S. aberdeen, white plate, Lucy I","38,450 ± 1,411"
same,"signal, direct binding Salmonella assay","S. aberdeen [2]; 0.3% SDS, 5 × 10^3 S. aberdeen, white plate, Lucy I","14,313 ± 2,881"
same,"signal, direct binding Salmonella assay","S. aberdeen [2]; 0.3% SDS, 5 × 10^4 S. aberdeen, white plate, Lucy I","123,881 ± 15,994"
